Laboratory results reported in ChEMBL document CHEMBL1159234, “Antitumor agents, 157. Absolute structures of cumingianosides A-F, antileukemic triterpene glucosides, and structures of the hydrolysates of cumingianoside A” (J Nat Prod, 1995).

Test system: MOLT-4
Assay: Cytotoxicity against human MOLT4 cells
Type: functional, cell-based

Structure (SMILES)	EC50
CC(=O)OC[C@H]1O[C@@H](O[C@@H]2C[C@H]3C(C)(C)[C@H](OC(C)=O)CC[C@]3(C)[C@H]3CC[C@]45C[C@]4(CC[C@H]5[C@@H](C)C[C@@H](O)[C@H](O)C(C)(C)O)[C@@]32C)[C@H](O)[C@@H](O)[C@@H]1O [CUMINGIANOSIDE A]	< 6.25 nM
COC(C)(C)[C@@H](O)[C@H](O)C[C@H](C)[C@@H]1CC[C@]23C[C@]12CC[C@@H]1[C@@]2(C)CC[C@@H](OC(C)=O)C(C)(C)[C@@H]2C[C@@H](O[C@@H]2O[C@H](COC(C)=O)[C@@H](O)[C@H](O)[C@H]2O)[C@]13C [CUMINGIANOSIDE C]	< 4.5 nM
